Here are results for nine compounds from paper PMC2903893 (Journal of the American Chemical Society, 2009).

Like-named read-outs stand apart in the source and are kept apart here.

One data set has as its system PKC. The settings on record: read-out: PKC IC50, cited from earlier work.
Another data set has as its target protein kinase C (PKC). The class given is biochemical. The settings on record: read-out: PKC IC50; whole enzyme with regulatory and catalytic domains.
In another data set the test system is PKCβII. The conditions noted are these: read-out: PKCβII IC50; ref 29 (ruboxistaurin), 30 (enzastaurin); cited from earlier work.
In a further data set the test system is PKCβI. The conditions noted are these: read-out: PKCβI IC50; ref 29 (ruboxistaurin), 30 (enzastaurin); cited from earlier work.
For the next data set, the system named is PPK. The conditions noted are these: read-out: PPK IC50; cited from earlier work.
The format of data set [1] is physicochemical. The conditions noted are these: 65 °C.
The next data set concerns JHU-012 Head&Neck. The experiment in a line: Cancer cell growth inhibition with and without light, JHU-012. The class given is cell-based. The conditions noted are these: JHU-012, with vs without light exposure.
In a further data set the test system is nine cancer cell lines. The experiment in a line: cells. The class given is cell-based.
For another data set, the system named is PKA. The conditions noted are these: read-out: PKA IC50; cited from earlier work.
The nature of data set [2]: Absorption of the perylenequinone chromophore. In kind it is physicochemical.
The conditions of data set [3]: cited from earlier work.

On to `COc1c(O)c2c(=O)cc(OC)c3c4c(OC)cc(=O)c5c(O)c(OC)c(CC(C)OC(=O)c6ccccc6)c(c(c1CC(C)OC(=O)c1ccccc1)c23)c54` (stereo not shown) [1a, calphostin A], for which the IC50 (usually the point on the concentration scale where inhibition reaches its midpoint) in the data set on PKC (ref 22b) is 250 nM.

For the compound Hypocrellin [ent-4], the IC50 at protein kinase C (PKC) was 400 nM.

With `COc1c(O)c2c(=O)cc(OC)c3c4c(OC)cc(=O)c5c(O)c(OC)c(CC(C)O)c(c(c1CC(C)O)c23)c54` (single isomer, unassigned; (-)) [(−)-1, Calphostin D], in the data set with PKC (Table 3 footnote a, ref [23]), the IC50 was 6400 nM.

On to `CN[C@@H]1C[C@H]2O[C@@](C)([C@@H]1OC)n1c3ccccc3c3c4c(c5c6ccccc6n2c5c31)C(=O)NC4` [staurosporin], for which the IC50 with PKC (catalytic domain-acting inhibitor) was […].

On to `CN(C)C[C@@H]1CCn2cc(c3ccccc32)C2=C(C(=O)NC2=O)c2cn(c3ccccc23)CCO1` [ruboxistaurin], for which the IC50 is […] in the data set on PKCβII and 4.7 nM with PKCβI.

As for `COc1c(CC(C)O)c2c3c(CC(C)O)c(OC)c(=O)c4c(O)cc5c(c6c(cc(O)c(c1=O)c62)OCO5)c43` (stereo not shown) [compound 3, Cercosporin], the 50% inhibitory concentration (IC50) was greater than 180000 nM with PPK, 600 to 1300 nM in the data set on PKC, 600 nM on protein kinase C (PKC) and greater than 500000 nM in the data set on PKA. The “ΔG^‡ atropisomerization” value in data set [1] (DMSO) was 28.2 kcal/mol; in data set [1] (benzene), 27.4 (benzene) kcal/mol; in [1] (benzene, listed as cercosporin), 27.4 kcal/mol; in [3] (acetylacetone), 27.0[5] (acetylacetone) kcal/mol. In addition, the photopotentiation in the data set on JHU-012 Head&Neck stood at 4.9 fold. Further, in the data set on nine cancer cell lines (read-out: CC50 across the series of cell lines), the CC50 (commonly the concentration that lowers cell viability or growth by half) is 120 to 270 nM. The “ε^670” value in data set [2] turned out to be 160 M⁻¹ cm⁻¹. In addition, the “atropisomerization t1/2” value in [3] (60 °C, DMSO) is 48 h.

With `Cn1cc(C2=C(c3cn(C4CCN(Cc5ccccn5)CC4)c4ccccc34)C(=O)NC2=O)c2ccccc21` [enzastaurin], the IC50 with PKCβII and in the data set with PKCβI was 30 nM in each case.

Consider `COc1c(C[C@@H](C)OC(=O)Oc2ccc(O)cc2)c2c3c(C[C@@H](C)OC(=O)c4ccccc4)c(OC)c(=O)c4c(O)cc(OC)c(c5c(OC)cc(O)c(c1=O)c52)c43` [1c, Calphostin C, reference compound], for which the IC50 in the data set on PPK was greater than 100000 nM; with PKC, 50 to 460 nM; with PKA it was greater than 100000 nM.

As for `COc1c2c3c4c(c(OC)c(=O)c5c(O)cc(OC)c(c6c(OC)cc(O)c(c1=O)c63)c54)[C@@H](C(C)=O)[C@@](C)(O)C2` [compound 4, Hypocrellin A], the IC50 on protein kinase C (PKC) came to 4500 nM. In the data set with nine cancer cell lines, the “growth inhibition, hypocrellin A (4) compared with hypocrellin (ent-4)” value is “nearly identical activity”.
